# Experimental data from PubChem BioAssay AID256 (DTP/NCI, 2004).
# Values joined by “and” are separate entries in the source; they are usually repeats but may differ in a detail not shown here. Identical values can stand only once. Inconclusive results and toxic doses are left out.
# Test system: CD2F1 mice, L1210 leukemia ip, survival T/C
# Test: NCI In Vivo Anticancer Drug Screen. Data for tumor model L1210 Leukemia (intraperitoneal) in CD2F1 (CDF1) mice
# Conditions: endpoint: mean survival time, higher = longer survival
# Procedure, shortened: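 Implant tumor; dose compound or vehicle; measure endpoint in both groups; report treated divided by control.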
# [1] = dose: 12.5 mg/kg/injection, schedule: Q01DX001 (ip), vehicle: Klucel (hydroxypropylcellulose) (HPC)
# [2] = dose: 25.0 mg/kg/injection, schedule: Q04DX003 (ip), vehicle: saline with Tween-80
# [3] = dose: 50.0 mg/kg/injection, schedule: Q04DX003 (ip), vehicle: saline with Tween-80
# [4] = dose: 100.0 mg/kg/injection, schedule: Q01DX009 (ip), vehicle: saline with Tween-80
# [5] = dose: 200.0 mg/kg/injection, schedule: Q01DX009 (ip), vehicle: saline with Tween-80
# [6] = dose: 400.0 mg/kg/injection, schedule: Q01DX009 (ip), vehicle: saline with Tween-80
# [7] = dose: 50.0 mg/kg/injection, schedule: Q01DX001 (ip), vehicle: saline with Tween-80
# [8] = dose: 100.0 mg/kg/injection, schedule: Q01DX001 (ip), vehicle: saline with Tween-80
# [9] = dose: 100.0 mg/kg/injection, schedule: Q04DX003 (ip), vehicle: saline with Tween-80
# [10] = dose: 200.0 mg/kg/injection, schedule: Q04DX003 (ip), vehicle: saline with Tween-80
# [11] = dose: 400.0 mg/kg/injection, schedule: Q04DX003 (ip), vehicle: saline with Tween-80
# [12] = dose: 50.0 mg/kg/injection, schedule: Q01DX009 (ip), vehicle: saline with Tween-80
# [13] = dose: 100.0 mg/kg/injection, schedule: Q04DX002 (ip), vehicle: saline with Tween-80
# [14] = dose: 200.0 mg/kg/injection, schedule: Q04DX002 (ip), vehicle: saline with Tween-80
# [15] = dose: 400.0 mg/kg/injection, schedule: Q04DX002 (ip), vehicle: saline with Tween-80
smiles,measurement,setting,value
COc1ccc(/C=C2/CCOC2=O)cc1,T/C,"dose: 3.12 mg/kg/injection, schedule: Q01DX001 (ip), vehicle: Klucel (hydroxypropylcellulose) (HPC)",104 % of control
same,T/C,"dose: 3.12 mg/kg/injection, schedule: Q04DX002 (ip), vehicle: Klucel (hydroxypropylcellulose) (HPC)",103 % of control
same,T/C,"dose: 6.25 mg/kg/injection, schedule: Q01DX001 (ip), vehicle: Klucel (hydroxypropylcellulose) (HPC)",102 % of control
same,T/C,"dose: 6.25 mg/kg/injection, schedule: Q04DX002 (ip), vehicle: Klucel (hydroxypropylcellulose) (HPC)",100 % of control
same,T/C,[1],116 % of control
same,T/C,"dose: 12.5 mg/kg/injection, schedule: Q04DX002 (ip), vehicle: Klucel (hydroxypropylcellulose) (HPC)",107 % of control
CCCCCCCCCCCCCCCC[n+]1ccc(C(N)=O)cc1,T/C,"dose: 12.5 mg/kg/injection, schedule: Q01DX009 (ip), vehicle: saline with Tween-80",105 % of control
same,T/C,"dose: 12.5 mg/kg/injection, schedule: Q04DX003 (ip), vehicle: saline with Tween-80",100 % of control
same,T/C,[2],98 % of control
same,T/C,[3],97 % of control
COc1ccc(C(=O)c2ccccc2NC(C)=O)cc1,T/C,[4],98 % of control
same,T/C,[5],101 % of control
same,T/C,[6],98 % of control
S,T/C,"dose: 100.0 mg/kg/injection, schedule: Q04DX003 (ip), vehicle: Klucel (hydroxypropylcellulose) (HPC)",95 % of control
same,T/C,"dose: 200.0 mg/kg/injection, schedule: Q04DX003 (ip), vehicle: Klucel (hydroxypropylcellulose) (HPC)",101 % of control
same,T/C,"dose: 400.0 mg/kg/injection, schedule: Q04DX003 (ip), vehicle: Klucel (hydroxypropylcellulose) (HPC)",93 % of control
CC1(C)N=C(N)N=C(N)N1c1ccc(OCCCCNC(=O)Nc2ccc(S(=O)(=O)F)cc2)c(Cl)c1,T/C,"dose: 25.0 mg/kg/injection, schedule: Q01DX001 (ip), vehicle: saline with Tween-80",101 % of control
same,T/C,[7],95 % of control
same,T/C,[8],94 % of control and 95 % of control
CC1(C2CC(=O)N(OCc3ccccc3)C2=O)OCCO1 (configuration not stated),T/C,"dose: 100.0 mg/kg/injection, schedule: Q04DX003 (ip), vehicle: other",89 % of control
same,T/C,"dose: 200.0 mg/kg/injection, schedule: Q04DX003 (ip), vehicle: other",87 % of control
same,T/C,"dose: 400.0 mg/kg/injection, schedule: Q04DX003 (ip), vehicle: other",88 % of control
CCn1c(-c2cccc(N)c2)cc(=O)n1-c1ccccc1,T/C,[9],98 % of control
same,T/C,[10],96 % of control
same,T/C,[11],90 % of control
c1ccc2c3c(ccc2c1)CN1CCCCC1C3 (configuration not stated),T/C,[12],102 % of control
same,T/C,[4],100 % of control
same,T/C,[5],104 % of control
Cc1csc2nc(-c3ccccc3)[nH]c(=S)c12,T/C,[9],90 % of control
same,T/C,[11],87 % of control
CC(=O)Nc1ccc(/C=C2\N=C(c3cccc(Cl)c3)OC2=O)cc1,T/C,[13],90 % of control
same,T/C,[14],98 % of control
same,T/C,[15],105 % of control
CSc1c(N)nc(N)[nH]c1=O,T/C,"dose: 100.0 mg/kg/injection, schedule: Q01DX001 (ip), vehicle: alkali diluted with water",96 % of control
same,T/C,"dose: 200.0 mg/kg/injection, schedule: Q01DX001 (ip), vehicle: alkali diluted with water",94 % of control
same,T/C,"dose: 400.0 mg/kg/injection, schedule: Q01DX001 (ip), vehicle: alkali diluted with water",96 % of control
COc1ccc(/C=N/NC(=O)c2ccccc2)cc1OC,T/C,"dose: 12.5 mg/kg/injection, schedule: Q01DX009 (ip), vehicle: other",98 % of control
same,T/C,"dose: 25.0 mg/kg/injection, schedule: Q01DX009 (ip), vehicle: other",105 % of control
same,T/C,"dose: 50.0 mg/kg/injection, schedule: Q01DX009 (ip), vehicle: other",105 % of control
same,T/C,"dose: 100.0 mg/kg/injection, schedule: Q01DX009 (ip), vehicle: other",107 % of control
same,T/C,"dose: 200.0 mg/kg/injection, schedule: Q01DX009 (ip), vehicle: other",107 % of control
CC(=O)c1cc(F)ccc1O,T/C,[4],92 % of control
same,T/C,[5],111 % of control
same,T/C,[6],88 % of control
CC1(C)N=C(N)N=C(N)N1c1ccc(OCCCOc2ccc(S(=O)(=O)F)cc2)c(Cl)c1,T/C,"dose: 6.25 mg/kg/injection, schedule: Q01DX009 (ip), vehicle: saline",104 % of control
same,T/C,"dose: 12.5 mg/kg/injection, schedule: Q01DX009 (ip), vehicle: saline",98 % of control
same,T/C,"dose: 25.0 mg/kg/injection, schedule: Q01DX009 (ip), vehicle: saline",104 % of control
S=C(S)c1[nH]c(=S)[nH]c(=S)c1Cl,T/C,[9],96 % of control
same,T/C,[10],101 % of control
same,T/C,[11],87 % of control
O=S(=O)(OC(Cc1ccccc1)Cc1ccccc1)c1ccc(Br)cc1,T/C,[12],95 % of control
same,T/C,[4],91 % of control
same,T/C,[5],95 % of control
COc1ccc(C2=CC(=O)N(C(C)C)C2=O)cc1,T/C,[2],116 % of control
same,T/C,[3],93 % of control
same,T/C,[9],98 % of control
same,T/C,[10],108 % of control
O=C1C2C(C(=O)N1c1ccccc1)C1c3ccccc3C2C2CCCCN21 (configuration not stated),T/C,"dose: 12.5 mg/kg/injection, schedule: Q04DX003 (ip), vehicle: Klucel (hydroxypropylcellulose) (HPC)",95 % of control
same,T/C,"dose: 25.0 mg/kg/injection, schedule: Q04DX003 (ip), vehicle: Klucel (hydroxypropylcellulose) (HPC)",101 % of control
same,T/C,"dose: 50.0 mg/kg/injection, schedule: Q04DX003 (ip), vehicle: Klucel (hydroxypropylcellulose) (HPC)",93 % of control
CCN(CC)C(=O)CSC#N,T/C,[1],96 % of control
same,T/C,"dose: 25.0 mg/kg/injection, schedule: Q01DX001 (ip), vehicle: Klucel (hydroxypropylcellulose) (HPC)",100 % of control
COc1ccc(CCNC(=O)/C=C\C(=O)O)cc1OC,T/C,[4],106 % of control
same,T/C,[9],89 % of control
same,T/C,[5],103 % of control
same,T/C,[10],103 % of control
same,T/C,[6],101 % of control
same,T/C,[11],106 % of control
CC(=O)OC(C)C(OC(C)=O)C(OC(C)=O)C(C=O)OC(C)=O (configuration not stated),T/C,"dose: 100.0 mg/kg/injection, schedule: Q01DX001 (ip), vehicle: Klucel (hydroxypropylcellulose) (HPC)",101 % of control
same,T/C,"dose: 200.0 mg/kg/injection, schedule: Q01DX001 (ip), vehicle: Klucel (hydroxypropylcellulose) (HPC)",101 % of control
same,T/C,"dose: 400.0 mg/kg/injection, schedule: Q01DX001 (ip), vehicle: Klucel (hydroxypropylcellulose) (HPC)",101 % of control
O=NN(CCCl)C(=O)NC1CCN(Cc2ccccc2)CC1,T/C,"dose: 12.5 mg/kg/injection, schedule: Q01DX001 (ip), vehicle: saline with Tween-80",123 % of control
same,T/C,[7],271 % of control
same,T/C,[8],379 % of control
[Br][OsH].[C-]#[O+].c1ccc([PH+](c2ccccc2)c2ccccc2)cc1.c1ccc([PH+](c2ccccc2)c2ccccc2)cc1.c1ccc([PH+](c2ccccc2)c2ccccc2)cc1,T/C,[13],91 % of control
same,T/C,[14],87 % of control
same,T/C,[15],87 % of control
O=C(O)C1CCC(C(=O)O)CC1 (configuration not stated),T/C,[4],95 % of control
same,T/C,[5],91 % of control
same,T/C,[6],87 % of control
C=C(C)CCCC(C)C(O)C=O (configuration not stated),T/C,"dose: 100.0 mg/kg/injection, schedule: Q01DX001 (ip), vehicle: saline",98 % of control
same,T/C,"dose: 200.0 mg/kg/injection, schedule: Q01DX001 (ip), vehicle: saline",95 % of control
same,T/C,"dose: 400.0 mg/kg/injection, schedule: Q01DX001 (ip), vehicle: saline",95 % of control
CC(c1ccccc1)n1cncc1C(=O)N1CCN(C)CC1 (configuration not stated),T/C,"dose: 25.0 mg/kg/injection, schedule: Q01DX009 (ip), vehicle: saline with Tween-80",105 % of control
same,T/C,[12],96 % of control
same,T/C,[4],94 % of control and 95 % of control
same,T/C,[9],92 % of control
same,T/C,[10],91 % of control
same,T/C,[11],97 % of control
CC1(C)CC(NC(=O)CSc2ncnc3nc[nH]c23)CC(C)(C)N1O,T/C,"dose: 12.5 mg/kg/injection, schedule: Q01DX005 (ip), vehicle: saline",106 % of control
same,T/C,"dose: 25.0 mg/kg/injection, schedule: Q01DX005 (ip), vehicle: saline",98 % of control
same,T/C,"dose: 50.0 mg/kg/injection, schedule: Q01DX005 (ip), vehicle: saline",98 % of control
same,T/C,"dose: 100.0 mg/kg/injection, schedule: Q01DX005 (ip), vehicle: saline",98 % of control
same,T/C,"dose: 200.0 mg/kg/injection, schedule: Q01DX005 (ip), vehicle: saline",98 % of control
Nc1ccc(OCC(O)CN2CCN(c3ccccc3)CC2)cc1 (configuration not stated),T/C,[13],94 % of control
same,T/C,[14],107 % of control
CCCCCCCC[n+]1cccc(C(=O)c2ccccc2)c1,T/C,"dose: 75.0 mg/kg/injection, schedule: Q01DX001 (ip), vehicle: saline",105 % of control
